In ChEMBL document CHEMBL5532687, “A colorimetric assay adapted to fragment screening revealing aurones and chalcones as new arginase inhibitors” (RSC Med Chem, 2024):

Biological target: T1, Arginase-1 (Bos taurus, UniProt Q2KJ64)
T1 sequence (Q2KJ64 whole entry): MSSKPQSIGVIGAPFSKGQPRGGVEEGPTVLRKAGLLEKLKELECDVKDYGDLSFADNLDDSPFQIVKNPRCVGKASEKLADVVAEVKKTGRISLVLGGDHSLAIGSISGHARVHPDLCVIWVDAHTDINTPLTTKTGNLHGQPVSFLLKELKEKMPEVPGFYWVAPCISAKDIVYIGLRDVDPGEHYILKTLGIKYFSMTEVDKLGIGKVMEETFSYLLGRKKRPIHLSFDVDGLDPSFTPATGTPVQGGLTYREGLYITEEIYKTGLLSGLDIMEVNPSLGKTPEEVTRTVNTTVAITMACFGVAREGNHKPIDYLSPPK
Experiment: Inhibition of bovine liver arginase 1 using L-arginine as substrate incubated for 60 mins by OPA-p colorimetric assay

First: O=C(/C=C/c1ccc(O)c(O)c1)c1cc(O)cc(O)c1
Second: O=C(/C=C/c1cc(O)cc(O)c1)c1ccc(O)c(O)c1
The IC50 of the first is 2.7-fold lower: 136 µM for the first, 364 µM for the second.

`O=C(/C=C/c1ccc(O)c(O)c1)c1cccc(O)c1` and `O=C(/C=C/c1cccc(O)c1)c1ccc(O)c(O)c1` are within 1.5-fold of each other in IC50: 102 µM for the first, 135 µM for the second.

`O=C1C(=Cc2ccc(O)c(O)c2)C(=O)c2ccccc21` and `O=C1/C(=C/c2ccc(O)c(O)c2)Oc2cc(O)ccc21` [SULFURETIN] are within 1.5-fold of each other in IC50: 537 µM for the first, 437 µM for the second.

`Oc1cc(O)cc(/C=C/c2ccc(O)c(O)c2)c1` [PICEATANNOL] and `O=C(/C=C/c1ccc(O)c(O)c1)c1c(O)cc(O)cc1O` [3,4,2',4',6'-PENTAHYDROXYCHALCONE] are within 1.5-fold of each other in IC50: 71.6 µM for the first, 98 µM for the second.

`Oc1cccc(O)c1O` [PYROGALLOL] and `O=C1/C(=C/c2ccc(O)c(O)c2O)Oc2c1ccc(O)c2O` are within 1.5-fold of each other in IC50: 375 µM for the first, 532 µM for the second.

Compared with `O=C(/C=C/c1cc(O)c(O)c(O)c1)c1ccc(O)c(O)c1`, `O=C(/C=C/c1ccc(O)c(O)c1)c1ccc(O)c(O)c1` is 8.4-fold lower in IC50: 764 µM for the first, 91.1 µM for the second.

`O=C(/C=C/c1ccc(O)cc1)c1ccc(O)c(O)c1` and `O=C(/C=C/c1ccc(O)c(O)c1)c1ccc(O)cc1` are within 1.5-fold of each other in IC50: 302 µM for the first, 354 µM for the second.

`O=C1/C(=C/c2ccc(O)c(O)c2)Oc2c1ccc(O)c2O` and `O=C1/C(=C/c2cc(O)c(O)c(O)c2)Oc2c1ccc(O)c2O` are within 1.5-fold of each other in IC50: 254 µM for the first, 287 µM for the second.

`O=C(/C=C/c1ccc(O)c(O)c1)O[C@@H]1C[C@](O)(C(=O)O)C[C@@H](O)[C@H]1O` [CHLOROGENIC ACID] and `O=C(/C=C/c1ccc(O)c(O)c1)c1ccccc1` are within 1.5-fold of each other in IC50: 271 µM for the first, 351 µM for the second.

Compared with `O=C1/C(=C/c2cccc(O)c2)Oc2c1ccc(O)c2O`, `O=C1/C(=C/c2ccc(O)cc2)Oc2c1ccc(O)c2O` is 16-fold higher in IC50: 120 µM for the first, 1930 µM for the second.

First: O=C(/C=C/c1ccccc1)c1ccc(O)c(O)c1
Second: O=C(/C=C/c1ccc(O)c(O)c1)c1ccc(O)cc1O [BUTEIN]
The IC50 of the first is 4-fold lower: 384 µM for the first, 1550 µM for the second. The first is the more potent here.

First: O=C1/C(=C/c2ccc(F)c(F)c2)Oc2c1ccc(O)c2O
Second: O=C1/C(=C/c2ccc(F)cc2)Oc2c1ccc(O)c2O
The IC50 of the first is 1.6-fold lower: 312 µM for the first, 507 µM for the second.

First: O=C1/C(=C/c2c(F)c(F)c(F)c(F)c2F)Oc2c1ccc(O)c2O
Second: Oc1ccc(Cl)cc1C1CC(c2ccco2)=NN1 (configuration not stated)
The IC50 of the first is 1.5-fold higher: 1090 µM for the first, 720 µM for the second. The second is the more potent here.

Molecule `N[C@@H](CSCCB(O)O)C(=O)O` has an IC50 of 23 µM.
